According to patent publication US20250025490A1, “INDUCTION OF TRAINED IMMUNITY FOR THE TREATMENT OF HYPERPROLIFERATIVE DISORDERS” (priority 2021, published 2025):

Tests used:
Assay type in all cases: cell-based, mice
peritoneal macrophages [1] = experiment: In vitro training and re-stimulation of peritoneal macrophages (Example 2), TNF-α ELISA
Procedure: Isolation and culture of peritoneal macrophages. Mice were euthanized with CO2 inhalation and injected i.p. with 5 ml of sterile cold, complete DMEM medium (Sigma Aldrich) followed by gentle massage of the peritoneum. The peritoneal fluid was then collected, centrifuged at 1600 rpm for 5 min. The cell pellet was washed, counted, and plated at appropriate numbers in complete DMEM. The cells were incubated for 2-4 hours at 37° C. and 5% CO2 to allow peritoneal macrophages attached to the plates. The floating cells were aspirated and plates were gently washed with sterile pre-warmed medium and then added with fresh complete DMEM. For comparison studies between different mouse strains, peritoneal cells were stained with viability dye and anti-F4/80 antibodies (Biolegend) and F4/80^+ macrophages were sorted by FACS Aria III (BD Bioscience).
In vitro training and re-stimulation of peritoneal macrophages. Peritoneal macrophages were treated with 25 μg/ml of WGP or polystyrene beads (3 μm, Sigma-Aldrich) and incubated for 24 h at 37°° C. with 5% CO2. Macrophages were then washed with pre-warmed complete DMEM at least twice to remove excess WGP or polystyrene beads, added with fresh complete DMEM and incubated 6 days. On day 7, macrophages were re-stimulated with different stimuli such as LPS (10 ng/ml) (Sigma), tumor cells, tumor cell culture supernatants (40%) or rMIF (100 ng/ml) (kindly provided by Dr. Robert Mitchell) for 24 h. The culture supernatants were harvested and assayed for TNF-α by ELISA. For cell culture supernatants, tumor cell lines including LLC, B16F10, and EL4, and control cell line MLE-12 were used.
These cell lines were cultured (1 million/4 ml complete DMEM) in a 6-well plate and incubated for 72 h. The supernatants were harvested and stored at −80° C. in aliquots.
ELISA for TNF-α and MIF. TNF-α in the culture supernatants was measured using TNF-α ELISA kit (Biolegend) and MIF levels in the culture supernatants were quantified using mouse MIF ELISAkit (R&D Systems) per the manufacturer's instruction.
In vitro training with S1P. Peritoneal macrophages were stimulated with 200 nM or 300 nM of S1P for 24 h at 37° C. and 5% CO2. The macrophages were then washed and allowed for resting. On day 7, the macrophages were stimulated with LPS (10 ng/ml) or LLC culture supernatant (40%) for 24 h and the supernatants were collected for the quantification of TNF-α using ELISA. For another set of in vitro-training experiment, macrophages were trained with S1P in the presence of Mdivi-1 (10 μM) during S1P training and throughout the resting period. Cells were restimulated with LPS and the supernatants were collected to determine TNF-α levels by ELISA.
[…] The inhibitors were further added to the macrophage cultures and incubated at 37° C. and 5% CO2 for 6 more days. On day 7, the macrophages were washed once with pre-warmed complete DMEM and added LPS (10 ng/ml) or LLC culture supernatant (40%) for re-stimulation.

Drp-1 = experiment: p-Drp-1 / Drp-1 by flow cytometry and Western blot
Procedure: (§1) Mitochondrial ROS quantitation. Peritoneal macrophages were treated with WGP or S1P in the presence or absence of Mdivi-1 and incubated at 37° C. with 5% CO2 for 24 h. The cells were then harvested, washed with PBS and pelleted by centrifugation at 1600 rpm for 5 min at room temperature. The pellets were then stained with MitoSOX Red dye (5 μM) (Invitrogen) at 37° C. for 15 min. The cells were washed with pre-warmed HBSS followed by another wash with PBS at room temperature. The cells were then stained with viability dye and anti-F4/80 and then acquired by flow cytometry. Flow cytometry for p-Drp-1. Peritoneal macrophages were treated with WGP (25 μg/ml) or S1P (1 μM) and incubated at 37° C. with 5% CO2 for 3-4 h. Following the completion of incubation, the cells were quickly washed with cold PBS to stop the activation. The cells were harvested and washed with PBS. The cells were then fixed with 4% formaldehyde for 15 min at room temperature, washed with PBS and permeabilized using ice-cold 100% methanol on ice for a minimum of 10 min. The cells were then stained with primary antibody (p-Drp1) (Cell Signaling) for 1 hour at room temperature followed by secondary antibody (Anti-rabbit IgG) (Biolegend) for 30 min at room temperature as instructed in the Cell Signaling phospho-stain protocol and analyzed using flow cytometry.
Western blot analysis for total Drp-1 and p-Drp-1. […]

peritoneal macrophages [2] = experiment: Mitochondrial ROS quantitation (MitoSox Red); details: peritoneal macrophages, 24 h
Procedure: as §1

KPC tumor cells = experiment: Cytotoxicity assay of pancreatic CD11b+ cells against KPCLuc+ cells; details: NAC 1 mM
Procedure: The pancreas from WGP and PBS treated mice were harvested and the CD11b^+ populations were isolated using magnetic CD11b^+ MicroBeads (Miltenyi Biotec) and an autoMACS Pro Separator (Miltenyi Biotec). Purified CD11b^+ cells were then washed and counted, and these were plated at a ratio of 1:20 tumor:effector cells in a 96 well plate. All experimental samples were run in triplicate. After plating the CD11b^+ cells, the ROS inhibitor […] (NAC) (Sigma Aldrich) was added to one set of PBS and WGP derived cells at 1 mM for 1 hour before the addition of 5000 luciferase expressing KPC^+ pancreatic tumor cells to all wells. After 24 hours, of coculture, the plates were centrifuged and 20 μL of the supernatant was mixed with 100 μL of the Luciferase Assay Reagent (Promega). Luciferase activity measured in the supernatant correlated with tumor cells that had been killed by the effector cells and was measured using a luminometer (Femtomaster FB 12, Zylux Corporation). The spontaneous luciferase signal from plated tumor cells was subtracted from the measurement of the supernatant. Luciferase values are represented as Relative Light Units (RLUs).

SMILES: O=C(NCc1ccncc1)C12CC3CC(C1)CC(c1ccc(Cl)cc1)(C3)C2 [Sphk2i]
- effect on WGP trained responses (TNF-α) (peritoneal macrophages [1]; Sphk2i 25 μM or 50 μM, LPS and LLC supernatant): completely attenuated the trained responses
- effect on p-Drp-1 in WGP-treated macrophages (Drp-1; Sphk2i 50 μM, 3 h and 6 h): decreased the level of p-Drp-1 but not total Drp-1

SMILES: CCCCCCCCCCCCC/C=C/[C@@H](O)[C@@H](N)COP(=O)(O)O [S1P, sphingosine-1-phosphate]
- TNF-α production of macrophages trained with S1P (peritoneal macrophages [1]; S1P 200 nM or 300 nM, LPS or LLC supernatant restimulation): showed significantly higher TNF-α production compared to the untrained controls
- mtROS production (peritoneal macrophages [2]): exhibited an enhanced mtROS production
- phosphorylation of Drp-1 (Drp-1; peritoneal macrophages): significantly increased p-Drp-1 in macrophages

SMILES: CC(=O)N[C@@H](CS)C(=O)O [NAC, N-Acetyl Cysteine]
- effect of ROS inhibition on WGP-elicited cytotoxicity (KPC tumor cells): completely abrogated the WGP-elicited increase in cytotoxicity

SMILES: CCCC[C@@H](C)[C@@H](OC(=O)C[C@@H](CC(=O)O)C(=O)O)[C@H](C[C@@H](C)C[C@H](O)CCCC[C@@H](O)C[C@H](O)[C@H](C)N)OC(=O)C[C@@H](CC(=O)O)C(=O)O [Fumonisin-B1]
- effect on WGP-mediated trained response (TNF-α) (peritoneal macrophages [1]; Fumonisin-B1 25 μM, LPS and LLC supernatants): abrogated WGP-mediated trained response
